Experimental data reported in the NIST ThermoML archive (doi:10.1016/j.jct.2016.08.005).
± gives the expanded uncertainty stated by the source.

Conditions: Liquid, Vibrating tube method

Cc1ccsc1 [3-methylthiophene]
Conditions | mass density [kg/m3]
283.15 K, 100 kPa | 1031.82 ± 0.51
283.15 K, 2000 kPa | 1033.26 ± 0.51
283.15 K, 5000 kPa | 1035.47 ± 0.51
283.15 K, 7000 kPa | 1036.93 ± 0.51
283.15 K, 10000 kPa | 1039.07 ± 0.51
283.15 K, 15000 kPa | 1042.56 ± 0.51
283.15 K, 20000 kPa | 1045.93 ± 0.52
283.15 K, 25000 kPa | 1049.2 ± 0.52
283.15 K, 30000 kPa | 1052.37 ± 0.52
283.15 K, 35000 kPa | 1055.46 ± 0.53
283.15 K, 40000 kPa | 1058.46 ± 0.53
283.15 K, 45000 kPa | 1061.37 ± 0.54
283.15 K, 50000 kPa | 1064.22 ± 0.54
283.15 K, 55000 kPa | 1066.97 ± 0.55
283.15 K, 60000 kPa | 1069.67 ± 0.56
283.15 K, 65000 kPa | 1072.32 ± 0.57
288.15 K, 100 kPa | 1026.57 ± 0.51
288.15 K, 2000 kPa | 1028.05 ± 0.51
288.15 K, 5000 kPa | 1030.34 ± 0.51
288.15 K, 7000 kPa | 1031.84 ± 0.51
288.15 K, 10000 kPa | 1034.03 ± 0.51
288.15 K, 15000 kPa | 1037.61 ± 0.51
288.15 K, 20000 kPa | 1041.07 ± 0.51
288.15 K, 25000 kPa | 1044.41 ± 0.52
288.15 K, 30000 kPa | 1047.65 ± 0.52
288.15 K, 35000 kPa | 1050.8 ± 0.52
288.15 K, 40000 kPa | 1053.86 ± 0.53
288.15 K, 45000 kPa | 1056.84 ± 0.53
288.15 K, 50000 kPa | 1059.74 ± 0.54
288.15 K, 55000 kPa | 1062.56 ± 0.55
288.15 K, 60000 kPa | 1065.32 ± 0.56
288.15 K, 65000 kPa | 1068.01 ± 0.56
293.15 K, 100 kPa | 1021.31 ± 0.51
293.15 K, 2000 kPa | 1022.81 ± 0.51
293.15 K, 5000 kPa | 1025.16 ± 0.51
293.15 K, 7000 kPa | 1026.7 ± 0.51
293.15 K, 10000 kPa | 1028.95 ± 0.51
293.15 K, 15000 kPa | 1032.61 ± 0.51
293.15 K, 20000 kPa | 1036.16 ± 0.51
293.15 K, 25000 kPa | 1039.6 ± 0.52
293.15 K, 30000 kPa | 1042.92 ± 0.52
293.15 K, 35000 kPa | 1046.15 ± 0.52
293.15 K, 40000 kPa | 1049.27 ± 0.53
293.15 K, 45000 kPa | 1052.31 ± 0.53
293.15 K, 50000 kPa | 1055.28 ± 0.54
293.15 K, 55000 kPa | 1058.15 ± 0.54
293.15 K, 60000 kPa | 1060.96 ± 0.55
293.15 K, 65000 kPa | 1063.7 ± 0.56
298.15 K, 100 kPa | 1016 ± 0.51
298.15 K, 2000 kPa | 1017.57 ± 0.51
298.15 K, 5000 kPa | 1019.98 ± 0.51
298.15 K, 7000 kPa | 1021.56 ± 0.51
298.15 K, 10000 kPa | 1023.89 ± 0.51
298.15 K, 15000 kPa | 1027.64 ± 0.51
298.15 K, 20000 kPa | 1031.29 ± 0.51
298.15 K, 25000 kPa | 1034.81 ± 0.51
298.15 K, 30000 kPa | 1038.2 ± 0.52
298.15 K, 35000 kPa | 1041.52 ± 0.52
298.15 K, 40000 kPa | 1044.71 ± 0.52
298.15 K, 45000 kPa | 1047.82 ± 0.53
298.15 K, 50000 kPa | 1050.84 ± 0.53
298.15 K, 55000 kPa | 1053.78 ± 0.54
298.15 K, 60000 kPa | 1056.65 ± 0.55
298.15 K, 65000 kPa | 1059.43 ± 0.55
303.15 K, 100 kPa | 1010.72 ± 0.51
303.15 K, 2000 kPa | 1012.32 ± 0.51
303.15 K, 5000 kPa | 1014.81 ± 0.51
303.15 K, 7000 kPa | 1016.43 ± 0.51
303.15 K, 10000 kPa | 1018.83 ± 0.51
303.15 K, 15000 kPa | 1022.7 ± 0.51
303.15 K, 20000 kPa | 1026.42 ± 0.51
303.15 K, 25000 kPa | 1030.01 ± 0.51
303.15 K, 30000 kPa | 1033.5 ± 0.52
303.15 K, 35000 kPa | 1036.87 ± 0.52
303.15 K, 40000 kPa | 1040.16 ± 0.52
303.15 K, 45000 kPa | 1043.34 ± 0.53
303.15 K, 50000 kPa | 1046.42 ± 0.53
303.15 K, 55000 kPa | 1049.41 ± 0.54
303.15 K, 60000 kPa | 1052.33 ± 0.54
303.15 K, 65000 kPa | 1055.16 ± 0.55
308.15 K, 100 kPa | 1005.4 ± 0.51
308.15 K, 2000 kPa | 1007.04 ± 0.51
308.15 K, 5000 kPa | 1009.61 ± 0.51
308.15 K, 7000 kPa | 1011.27 ± 0.51
308.15 K, 10000 kPa | 1013.72 ± 0.51
308.15 K, 15000 kPa | 1017.69 ± 0.51
308.15 K, 20000 kPa | 1021.53 ± 0.51
308.15 K, 25000 kPa | 1025.22 ± 0.51
308.15 K, 30000 kPa | 1028.73 ± 0.51
308.15 K, 35000 kPa | 1032.24 ± 0.52
308.15 K, 40000 kPa | 1035.59 ± 0.52
308.15 K, 45000 kPa | 1038.84 ± 0.52
308.15 K, 50000 kPa | 1041.98 ± 0.53
308.15 K, 55000 kPa | 1045.05 ± 0.53
308.15 K, 60000 kPa | 1048.03 ± 0.54
308.15 K, 65000 kPa | 1050.91 ± 0.54
313.15 K, 100 kPa | 1000.05 ± 0.51
313.15 K, 2000 kPa | 1001.76 ± 0.51
313.15 K, 5000 kPa | 1004.39 ± 0.51
313.15 K, 7000 kPa | 1006.11 ± 0.51
313.15 K, 10000 kPa | 1008.64 ± 0.51
313.15 K, 15000 kPa | 1012.71 ± 0.51
313.15 K, 20000 kPa | 1016.63 ± 0.51
313.15 K, 25000 kPa | 1020.43 ± 0.51
313.15 K, 30000 kPa | 1024.08 ± 0.51
313.15 K, 35000 kPa | 1027.61 ± 0.51
313.15 K, 40000 kPa | 1031.05 ± 0.52
313.15 K, 45000 kPa | 1034.35 ± 0.52
313.15 K, 50000 kPa | 1037.58 ± 0.52
313.15 K, 55000 kPa | 1040.71 ± 0.53
313.15 K, 60000 kPa | 1043.73 ± 0.53
313.15 K, 65000 kPa | 1046.69 ± 0.54
318.15 K, 100 kPa | 994.7 ± 0.51
318.15 K, 2000 kPa | 996.44 ± 0.51
318.15 K, 5000 kPa | 999.15 ± 0.51
318.15 K, 7000 kPa | 1000.93 ± 0.51
318.15 K, 10000 kPa | 1003.52 ± 0.51
318.15 K, 15000 kPa | 1007.7 ± 0.51
318.15 K, 20000 kPa | 1011.74 ± 0.51
318.15 K, 25000 kPa | 1015.6 ± 0.51
318.15 K, 30000 kPa | 1019.35 ± 0.51
318.15 K, 35000 kPa | 1022.99 ± 0.51
318.15 K, 40000 kPa | 1026.48 ± 0.52
318.15 K, 45000 kPa | 1029.86 ± 0.52
318.15 K, 50000 kPa | 1033.15 ± 0.52
318.15 K, 55000 kPa | 1036.33 ± 0.53
318.15 K, 60000 kPa | 1039.44 ± 0.53
318.15 K, 65000 kPa | 1042.45 ± 0.53
323.15 K, 100 kPa | 989.3 ± 0.51
323.15 K, 2000 kPa | 991.1 ± 0.51
323.15 K, 5000 kPa | 993.9 ± 0.51
323.15 K, 7000 kPa | 995.72 ± 0.51
323.15 K, 10000 kPa | 998.41 ± 0.51
323.15 K, 15000 kPa | 1002.71 ± 0.51
323.15 K, 20000 kPa | 1006.85 ± 0.51
323.15 K, 25000 kPa | 1010.83 ± 0.51
323.15 K, 30000 kPa | 1014.66 ± 0.51
323.15 K, 35000 kPa | 1018.35 ± 0.51
323.15 K, 40000 kPa | 1021.93 ± 0.51
323.15 K, 45000 kPa | 1025.4 ± 0.52
323.15 K, 50000 kPa | 1028.76 ± 0.52
323.15 K, 55000 kPa | 1032.03 ± 0.52
323.15 K, 60000 kPa | 1035.18 ± 0.53
323.15 K, 65000 kPa | 1038.24 ± 0.53
328.15 K, 100 kPa | 983.88 ± 0.51
328.15 K, 2000 kPa | 985.74 ± 0.51
328.15 K, 5000 kPa | 988.63 ± 0.51
328.15 K, 7000 kPa | 990.51 ± 0.51
328.15 K, 10000 kPa | 993.26 ± 0.51
328.15 K, 15000 kPa | 997.7 ± 0.51
328.15 K, 20000 kPa | 1001.93 ± 0.51
328.15 K, 25000 kPa | 1006 ± 0.51
328.15 K, 30000 kPa | 1009.94 ± 0.51
328.15 K, 35000 kPa | 1013.73 ± 0.51
328.15 K, 40000 kPa | 1017.38 ± 0.51
328.15 K, 45000 kPa | 1020.94 ± 0.51
328.15 K, 50000 kPa | 1024.36 ± 0.52
328.15 K, 55000 kPa | 1027.68 ± 0.52
328.15 K, 60000 kPa | 1030.89 ± 0.52
328.15 K, 65000 kPa | 1034.03 ± 0.53
333.15 K, 100 kPa | 978.47 ± 0.51
333.15 K, 2000 kPa | 980.39 ± 0.51
333.15 K, 5000 kPa | 983.35 ± 0.51
333.15 K, 7000 kPa | 985.3 ± 0.51
333.15 K, 10000 kPa | 988.13 ± 0.51
333.15 K, 15000 kPa | 992.67 ± 0.51
333.15 K, 20000 kPa | 997.03 ± 0.51
333.15 K, 25000 kPa | 1001.22 ± 0.51
333.15 K, 30000 kPa | 1005.22 ± 0.51
333.15 K, 35000 kPa | 1009.12 ± 0.51
333.15 K, 40000 kPa | 1012.87 ± 0.51
333.15 K, 45000 kPa | 1016.49 ± 0.51
333.15 K, 50000 kPa | 1020 ± 0.51
333.15 K, 55000 kPa | 1023.38 ± 0.52
333.15 K, 60000 kPa | 1026.67 ± 0.52
333.15 K, 65000 kPa | 1029.88 ± 0.52
338.15 K, 100 kPa | 972.98 ± 0.51
338.15 K, 2000 kPa | 974.96 ± 0.51
338.15 K, 5000 kPa | 978.01 ± 0.51
338.15 K, 7000 kPa | 980.02 ± 0.51
338.15 K, 10000 kPa | 982.95 ± 0.51
338.15 K, 15000 kPa | 987.63 ± 0.51
338.15 K, 20000 kPa | 992.12 ± 0.51
338.15 K, 25000 kPa | 996.41 ± 0.51
338.15 K, 30000 kPa | 1000.53 ± 0.51
338.15 K, 35000 kPa | 1004.49 ± 0.51
338.15 K, 40000 kPa | 1008.33 ± 0.51
338.15 K, 45000 kPa | 1012.04 ± 0.51
338.15 K, 50000 kPa | 1015.62 ± 0.51
338.15 K, 55000 kPa | 1019.08 ± 0.51
338.15 K, 60000 kPa | 1022.44 ± 0.52
338.15 K, 65000 kPa | 1025.7 ± 0.52
